Here are results for 11 compounds from PMC10754118, “Lipophilic Nucleoside Triphosphate Prodrugs of Anti‐HIV Active Nucleoside Analogs as Potential Antiviral Compounds” (Advanced Science, 2023).

Read-outs that look alike come from different tables or passages of the source.

One data set deals with T1, HIV‐RT (Human immunodeficiency virus type 1 group M subtype B, UniProt P03366).
T1 construct: HIV reverse transcriptase (HIV‐RT); purchased Roboklon
Details: method as in PMID 37647547. As to conditions: cited from earlier work.

The next data set relates to HIV‐2 [ROD]. Description: Anti-HIV activity, HIV-2 in wild-type CEM/0 cells. As to conditions: wild-type CEM/0 cells, mean ±SD n = 2–3, read-out: Antiviral activity CEM/0 HIV‐2 [ROD] EC50. It counts as cell-based.
The subject of a further data set is HIV‐1 [HE]. The data set is described as follows: Anti-HIV activity, HIV-1 in wild-type CEM/0 cells. It counts as cell-based. As to conditions: wild-type CEM/0 cells, mean ±SD n = 2–3, read-out: Antiviral activity CEM/0 HIV‐1 [HE] EC50.
In the next data set the test system is HIV‐2 [ROD)]. Description: Anti-HIV activity, HIV-2 in thymidine kinase-deficient CEM/TK^− cells. Format: cell-based.
The next data set has as its system CEM/0. The data set is described as follows: in vitro. The note with it: read-out: Toxicity CEM/0 CC50; 50% cytostatic concentration, CEM proliferation. How it is done:
(§1) All TriPPPro‐compounds 10 and 20, as well as their parent nucleosides and the corresponding NTPs, were evaluated for their antiviral activity (expressed as EC50 values) against HIV‐1 (wild‐type CEM/0 cells) and HIV‐2 (wild‐type CEM/0 cells and thymidine kinase‐deficient (CEM/TK^−) cells) with concomitant determination of cytotoxicity in the same cell line (Table 3 ).

The nature of data set [1]: Chemical hydrolysis in phosphate buffer saline (PBS, pH 7.3). The note with it: PBS pH 7.3, 37 °C, read-out: PBS pH 7.3 t 1/2 (converted). Format: physicochemical. As to the method:
(§2) Part 4. Chemical Hydrolysis of TriPPPro-compounds 10 and 20.
Second prepare 1.9 mM hydrolysis […]
(§3) Then, aliquots of 50 µL human

For another data set, the system named is pig liver esterase (PLE). The data set is described as follows: Hydrolysis with pig liver esterase (PLE). Format: in vitro ADME. As to conditions: pig liver esterase (PLE) in PBS, PLE in PBS pH 7.3, 37 °C, read-out: PLE t 1/2 (converted).
Source text: Next, TriPPPro‐compounds 10 and 20 were exposed to PLE in PBS (pH 7.3) and the half‐lives of TriPPPro‐compounds 10 and 20 are listed in Table 1. […] In contrast, the cleavage of the AB (C4) masking group in TriPPPro‐compounds 10by–hy and 10bz–hz was triggered by ester hydrolysis and yielded the corresponding γ‐alkylated nucleoside triphosphate derivatives 20 (Figure 3B,D) and 21 (Figures S17 and S18, Supporting Information), respectively. […] Moreover, a very small amount of NDPs was observed, probably due to a reaction involving a nucleophilic reaction at the γ‐phosphate or γ‐phosphonate moiety (pathways d and f, Scheme 5). […]
as §2
Second prepare 1.9 mM hydrolysis
Part 5. Hydrolysis of TriPPPro-compounds 10 and 20 with PLE .
Second, 125 µL DMSO and 833 µL
62.5 µL of PLE solution in PBS (100
mixture was stored in the freezer (- 30 °C).
by analytical HPLC (HPLC Method).
similar to that for the chemical hydrolysis studies. […]
as §3

Data set [2] in a line: in vitro. The note with it: human, plasma. How it is done: First prepare 50 mM solutions of TriPPPro-compounds 10 and 20 in DMSO. […]
First prepare 3.0 mM hydrolysis solutions of Tri PPPro-compounds 10 and 20 in DMSO and H2O: 21 µL stock solution (50 mM in DMSO) and 154 µL DMSO, and 175 µL Milli-Q water. Three-twelve different samples (20 […]
The calculation of t1/2 was obtained using Origin again.
(§4) Part 7. Hydrolysis of TriPPPro-compounds 10 and 20 in human plasma.
µL 3.0 mM hydrolysis solutions) were prepared in 2 mL Eppendorf® vials. Then, aliquots of 50 µL human Plasma (Heparin or Citrate) were added to these samples and the reaction was started. The samples were […]
incubated at 37 °C in a thermomixer for different time periods. The reaction was stopped by addition of 150 µL MeOH and kept on ice for 5 min. After centrifugation at 14,000 rpm for 22 min, the supernatants were filtered (Chromafil RC-20/15 MS, 0.2 μm) and stored in liquid nitrogen. When testing, aliquots of 25 0r 30 µL (injection volume) were analyzed by analytical HPLC (HPLC Method). The calculation of t1/2 was obtained using Origin […]
Part 8. Preparation of cell extracts and human plasma. […]

Data set [3] in a line: in vitro. As to conditions: human. As to the method: The hydrolysis properties of TriPPPro‐compounds 10 and 20 were evaluated in phosphate buffer saline (PBS, pH 7.3), pig liver esterase (PLE) or CEM/0 cell extracts. In both cases, hydrolysis products were analyzed by means of analytical RP18‐HPLC and the hydrolysis half‐lives (Table 1 , t1/2 ) of TriPPPro‐compounds 10 and 20 were calculated after complete consumption of the starting materials.
The hydrolysis of TriPPPro‐compounds 10 and 20 was carried out with CEM/0 cell extracts as well. […]
Part 6. Enzyme-Catalyzed Hydrolysis of TriPPPro-compounds 10 and 20 in CEM Cell […]
First prepare 3.0 mM hydrolysis solutions of Tri PPPro-compounds 10 and 20 in DMSO and H2O: 21 µL stock solution (50 mM in DMSO) and 154 µL DMSO, and 175 µL Milli-Q water. Three-twelve different samples (20 µL 3.0 mM hydrolysis solutions) were prepared in 2 mL Eppendorf® vials. Then, aliquots of 50 µL human CEM cell extracts were added to these samples and the reaction was started. The samples were incubated at 37 °C in a thermomixer for different time periods. The reaction was stopped by addition of 150 µL MeOH and kept on ice for 5 min. After centrifugation at 14,000 rpm for 12 min, the supernatants were filtered (Chromafil RC-20/15 MS, 0.2 μm) and stored in liquid nitrogen. When testing, aliquots of 60 µL (injection volume) were analyzed by analytical HPLC (HPLC Method). The calculation of t1/2 was obtained using Origin again.
as §4
µL 3.0 mM hydrolysis solutions) were prepared in 2 mL Eppendorf® vials.

Data set [4] in a line: in vitro. The note with it: human, CEM/0 cells (wild-type CD4+ T-cells). How it is done:
as §1

Where [5] appears, read: thymidine kinase-deficient CEM/TK^− cells, mean ±SD n = 2–3; read-out: Antiviral activity CEM/TK^− HIV‐2 [ROD)] EC50.
The mark [6] stands for this setting: Human immunodeficiency virus 2, CCRF-CEM.
Where [7] appears, read: Human immunodeficiency virus 1, CCRF-CEM.
[8] abbreviates: Human immunodeficiency virus 2, CEM-TK(-), thymidine kinase-deficient CEM/TK^− cells, mean ±SD n = 2–3; read-out: Antiviral activity CEM/TK^− HIV‐2 [ROD)] EC50.

For `Cc1cn([C@H]2C=C[C@@H](COP(=O)(O)OP(=O)(O)O)O2)c(=O)[nH]c1=O` [d4TDP], the “accepted by HIV‐RT as a substrate” value on HIV‐RT is reported as “accepted”.

Consider `O=c1[nH]c(=O)n([C@H]2C[C@H](O)[C@@H](COP(=O)(O)OP(=O)(O)OP(=O)(O)O)O2)cc1/C=C/Br` [BVDUTP, reference compound], for which the EC50 in the data set on HIV‐2 [ROD] was 5640 ± 4450 nM; in the data set with HIV‐1 [HE] it was 4730 ± 3050 nM; in the data set with HIV‐2 [ROD)] (setting [5]), greater than 100000 nM. The CC50 in the data set on CEM/0 is greater than 100 µM.

On to `O=c1ccn([C@H]2C[C@H](F)[C@@H](COP(=O)(O)OP(=O)(O)OP(=O)(O)O)O2)c(=O)[nH]1` [FddUTP, reference compound], for which the EC50 turned out to be 260 ± 320 nM with HIV‐2 [ROD], 150 ± 130 nM in the data set on HIV‐1 [HE] and 35400 ± 43900 nM with HIV‐2 [ROD)] (setting [5]). The CC50 in the data set with CEM/0 was greater than 100 µM.

`Cc1cn([C@H]2C[C@H](F)[C@@H](COP(=O)(O)OP(=O)(O)OP(=O)(O)O)O2)c(=O)[nH]c1=O` [FLTTP, reference compound]: the EC50 in the data set on HIV‐2 [ROD] was determined as 18 ± 9 nM; with HIV‐1 [HE], 7.6 ± 9.1 nM; in the data set on HIV‐2 [ROD)] (setting [5]), 4920 ± 2430 nM. Further, the CC50 in the data set with CEM/0 is greater than 100 µM.

Turning to `CCCCCCCCCCCCCCCCCCOP(=O)(OCCCC)OP(=O)(O)OP(=O)(O)OC[C@H]1O[C@@H](n2cc(C)c(=O)[nH]c2=O)C[C@@H]1N=[N+]=[N-]` (stereo partly drawn) [10bv, γ‐(alkyl‐C4;alkyl‐C18)‐AZTTP], the half-life at 1.9 mM in data set [1] is greater than 83.3 days. The half-life at 0.45 mM in the data set with pig liver esterase (PLE) is greater than 6.25 days. For the same compound, the EC50 with HIV‐2 [ROD] (setting [6]) is 26 ± 7 nM; in the data set on HIV‐1 [HE] (setting [7]), 41 ± 19 nM; with HIV‐2 [ROD)] (setting [8]), 290 ± 150 nM. Moreover, the half-life at 0.86 mM is greater than 1200 min in the data set “in vitro [2]” (Plasma (Citrate) t 1/2); greater than 1200 min in the data set “in vitro [2]” (Plasma (Heparin) t 1/2); greater than 480 min in the data set “in vitro [2]” (t 1/2 in human plasma (over heparin and citrate plasma)); greater than 1800 min in the data set “in vitro [3]”. The compound further yielded a CC50 in “in vitro [4]” of 64.9 µM.

With `Nc1nc(NC2CC2)c2ncn([C@H]3C=C[C@@H](COP(=O)(O)OP(=O)(O)OP(=O)(O)O)C3)c2n1` [ABCTP, reference compound], the EC50 amounted to 1020 ± 130 nM in the data set with HIV‐2 [ROD], 1850 ± 2140 nM in the data set on HIV‐1 [HE] and 850 ± 400 nM with HIV‐2 [ROD)] (setting [5]). The CC50 with CEM/0 was greater than 100 µM.

On to `Cc1cn([C@H]2C=C[C@@H](COP(=O)(O)OP(=O)(O)OP(=O)(O)O)O2)c(=O)[nH]c1=O` [d4TTP], for which, at HIV‐RT, the “accepted by HIV‐RT as a substrate” value was “accepted”.

Take `Nc1nc(=O)n([C@@H]2CS[C@H](COP(=O)(O)OP(=O)(O)OP(=O)(O)O)O2)cc1F` [FTCTP, reference compound]: the EC50 with HIV‐2 [ROD] was 43 ± 40 nM; in the data set on HIV‐1 [HE] it was 28 ± 15 nM; in the data set with HIV‐2 [ROD)] (setting [5]), 25 ± 27 nM. The CC50 in the data set on CEM/0 is greater than 100 µM.

In the case of `O=c1[nH]c(=O)n([C@H]2C[C@H](F)[C@@H](COP(=O)(O)OP(=O)(O)OP(=O)(O)O)O2)cc1Cl` [FddClUTP, reference compound], the EC50 with HIV‐2 [ROD] was 650 ± 130 nM; with HIV‐1 [HE], 840 ± 860 nM; with HIV‐2 [ROD)] (setting [5]), greater than 100000 nM. For the same compound, the CC50 in the data set with CEM/0 is greater than 100 µM.

Turning to `CCCCCCCCCCCCCCCCCCOP(=O)(O)OP(=O)(O)OP(=O)(O)OC[C@@H]1C=C[C@H](n2cnc3c(NC4CC4)nc(N)nc32)C1` [20h, γ‐C18‐ABCTP], the half-life at 1.9 mM in data set [1] is greater than 83.3 days. The half-life at 0.45 mM in the data set with pig liver esterase (PLE) was greater than 6.25 days. In addition, the EC50 was found to be 420 ± 110 nM in the data set with HIV‐2 [ROD] (setting [6]), 260 ± 130 nM in the data set on HIV‐1 [HE] (setting [7]) and 160 ± 160 nM in the data set on HIV‐2 [ROD)] (setting [8]). The half-life at 0.86 mM in “in vitro [2]” (Plasma (Citrate) t 1/2) was greater than 1200 min; in “in vitro [2]” (Plasma (Heparin) t 1/2), 288 min; in “in vitro [3]”, greater than 600 min. Also, the CC50 in “in vitro [4]” is greater than 100 µM.

Turning to `CCCCCCCCCCCCCCCCCCOP(=O)(OCc1ccc(OC(=O)CCCC)cc1)OP(=O)(O)OP(=O)(O)OCC1OC(n2cc(C)c(=O)[nH]c2=O)CC1N=[N+]=[N-]` (stereo not drawn) [10by, γ‐(AB‐C4;alkyl‐C18)‐AZTTP], the half-life at 1.9 mM in data set [1] was 17.4 days. Also, the half-life at 0.45 mM with pig liver esterase (PLE) was 0.00917 days. Further, the EC50 in the data set with HIV‐2 [ROD] (setting [6]) is 5.2 ± 4.1 nM; in the data set with HIV‐1 [HE] (setting [7]), 190 ± 120 nM; in the data set with HIV‐2 [ROD)] (setting [8]), 500 ± 350 nM. Further, the half-life at 0.86 mM in “in vitro [2]” (Plasma (Citrate) t 1/2) is 222 min; in the data set “in vitro [2]” (Plasma (Heparin) t 1/2) it was 312 min; in “in vitro [3]”, 198 min. In the data set “in vitro [4]”, this compound came in with a CC50 of 60.1 µM.
